Laboratory results reported in patent US20140057901A1, “XANTHINE DERIVATIVES, THE PREPARATION THEREOF AND THEIR USE AS PHARMACEUTICAL COMPOSITIONS” (Boehringer Ingelheim Pharma GmbH & Co. KG, priority 2001, published 2014).

melting point: 110 to 112 °C
Structure (SMILES): CC(C)=CCn1c(N2CCC(CN)CC2)nc2c1c(=O)n(C)c(=O)n2C [Example 2(105), 1,3-dimethyl-7-(3-methyl-2-buten-1-yl)-8-(4-aminomethyl-piperidin-1-yl)-xanthine]
